Data from patent US5686448A (priority 1995, dated 1997).
Several values for one entry are separate records, joined by “and”; a condition that tells them apart may be missing. Equal entries are not always repeated. Where two headings read alike, the source gives them in different places.

Key:
HSV-2 = settings: for Percent Reduction of lesions / # of lesions: TEAC ointment from 12-16 hours p.i.
Protocol: Female guinea pigs (obtained from Charles River, Inc.) weighing approximately 200 g were used as a model for HSV-2 skin lesions. The animals were anesthetized with 0.15 ml of Ketamine-Rompum mixture. The animals were first shaved on their back with a hair clipper and then treated with a depilatory cream (Nair). The denuded area was washed well and then dried. A tuberculin tyne was washed with ethanol and air dried.
Two methods were tried for infecting the animals with the virus. In one, a drop of HSV-2 suspension was placed on the skin and the skin was punctured with the tyne. In the second method, the tyne was dipped in the virus suspension before puncturing the skin.
In the first experiment, each of 3 guinea pigs was infected on three areas of their backs. At 3 days post infection, treatment was begun on one side of each animal, leaving the other side untreated as a control.
The animals were examined daily for vesicles (V), crust (C) and for erythema (R) alone.
In the next experiment 6 guinea pigs were infected in the same manner as the initial 3 guinea pigs. Treatment was begun 12-16 hours post infection. […] Lesions showing an erythematous base with either a blister or a crust on top were considered to HSV specific. […] Both the control animals and treated animals were carefully read in the same manner.

HSV-1 (McKrae strain) [1] = settings: 20 mg/ml
HSV-1 (McKrae strain) [2] = settings: for No. of Plaques: virus controls 270, 270, 252
Protocol: All cultures were incubated at 37° C. in a 5% CO2 humidified atmosphere. The cultures were stained with crystal violet to aid in counting the plaque.

RK-13 cells = settings: 25 mg/ml, 48 hours
[3] = test system: RK-13, Vero and WISH cells
[4] = Patient J, following day, 1% TEAC ointment topical
[5] = Patient J, two days after infusion 3.6 cc
[6] = Patient K, after second infusion
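Throughout, for duration of spots: individual clinical case observations in adult human patients with a history of recurrent HSV type 2 lesions, outcomes described qualitatively as reported symptoms and lesion episodes.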
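Throughout, for duration of vesicles: individual clinical case observations in adult human patients with a history of recurrent HSV type 2 lesions, outcomes described qualitatively as reported symptoms and lesion episodes.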
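Throughout, for recurrence of lesions or pain: individual clinical case observations in adult human patients with a history of recurrent HSV type 2 lesions, outcomes described qualitatively as reported symptoms and lesion episodes.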
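Throughout, for tiny areas under the skin: individual clinical case observations in adult human patients with a history of recurrent HSV type 2 lesions, outcomes described qualitatively as reported symptoms and lesion episodes.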

For CC[N+](CC)(CC)CC.[Cl-] [TEAC, tetraethylammonium chloride], the “Percent Reduction of lesions” value (HSV-2; day 3 P.I.) was 21%, the “# of lesions” value (HSV-2; day 3 P.I., control 19) was 15 and the “Percent Reduction of lesions” value (HSV-2; day 4 P.I.) was 27.5%. For the same compound, the “# of lesions” value (HSV-2; day 4 P.I., control 40) was 29, the “Percent Reduction of lesions” value (HSV-2; day 5 P.I.) was 58.5% and the “# of lesions” value (HSV-2; day 5 P.I., control 41) was 17. The “Percent Reduction of lesions” value (HSV-2; day 6 P.I.) was 58.3%, the “# of lesions” value (HSV-2; day 6 P.I., control 36) was 15 and the lesion appearance (HSV-2; first experiment, 4 times daily from 3 days p.i.) was “did not crust but appeared to be faded by 6 days post infection”. The dermatitis (HSV-2; first experiment, day 4 after treatment, probably due to TEAC or its vehicle or both) was “a rash appeared”, the “number and size of lesions” value (HSV-2; given 12-16 hours p.i.) was “significant reduction in the number of lesions, but also in their size” and the “rupture and crusting of lesions” value (HSV-2; given 12-16 hours p.i.) was “neither ruptured nor crusted”. For the same compound, the vesicle formation (HSV-2; given 12-16 hours p.i.) was “less vesicles formed”, the vesicles (HSV-2; given 3 days p.i.) was “reduced in elevation and eventually resolved” and the “number and appearance of lesions vs control” value (HSV-2; treatment from 12-16 hours p.i.) was “marked difference between the two groups”. For the same compound, the crusting (HSV type 1; Patient L, 2.9 cc, normally 3 weeks) was “on the 7th day after the treatment, the crusting had all disappeared”, the labialis lesion (HSV type 1; Patient M, 1% TEAC ointment resumed, three days later) was “the lesion had not spread and had now crusted” and the clearing of lesions (HSV type 1; Patient M, 1% TEAC ointment, five days later) was “cleared in a shorter time period than usual”. For the same compound, the virus yield (HSV-1 (McKrae strain) [1]; cell, 6 hours P.I., 10^-1) was 2 PFU/ml, the virus yield (HSV-1 (McKrae strain) [1]; cell, 6 hours P.I., 10^-2) was 5 PFU/ml and the virus yield (HSV-1 (McKrae strain) [1]; cell, 6 hours P.I., Und.) was 12 PFU/ml. For the same compound, the virus yield (HSV-1 (McKrae strain) [1]; cell, 10 hours P.I., 10^-1) was 3 PFU/ml, the virus yield (HSV-1 (McKrae strain) [1]; cell, 10 hours P.I., 10^-2) was 0 PFU/ml and the virus yield (HSV-1 (McKrae strain) [1]; cell, 10 hours P.I., Und.) was 13 PFU/ml. The virus yield (HSV-1 (McKrae strain) [1]; cell, 20 hours P.I., 10^-1) was 5 PFU/ml, the virus yield (HSV-1 (McKrae strain) [1]; cell, 20 hours P.I., 10^-2) was 0 PFU/ml and the virus yield (HSV-1 (McKrae strain) [1]; cell, 20 hours P.I., Und.) was 42 PFU/ml. The virus yield (HSV-1 (McKrae strain) [1]; cell, 24 hours P.I., 10^-1) was 32 PFU/ml, the virus yield (HSV-1 (McKrae strain) [1]; cell, 24 hours P.I., 10^-2) was 10 PFU/ml and the virus yield (HSV-1 (McKrae strain) [1]; cell, 24 hours P.I., Und.) was 58 PFU/ml. The virus yield (HSV-1 (McKrae strain) [1]; cell, 28 hours P.I., 10^-1) was “TMTC”, the virus yield (HSV-1 (McKrae strain) [1]; cell, 28 hours P.I., 10^-2) was 15 PFU/ml and the virus yield (HSV-1 (McKrae strain) [1]; cell, 28 hours P.I., Und.) was “W.O”. It also gave a virus yield (HSV-1 (McKrae strain) [1]; supernatant, 6 hours P.I., 10^-1) of 0 PFU/ml, a virus yield (HSV-1 (McKrae strain) [1]; supernatant, 6 hours P.I., 10^-2) of 0 PFU/ml and a virus yield (HSV-1 (McKrae strain) [1]; supernatant, 6 hours P.I., 10^-3) of 0 PFU/ml. For the same compound, the virus yield (HSV-1 (McKrae strain) [1]; supernatant, 10 hours P.I., 10^-1) was 0 PFU/ml, the virus yield (HSV-1 (McKrae strain) [1]; supernatant, 10 hours P.I., 10^-2) was 0 PFU/ml and the virus yield (HSV-1 (McKrae strain) [1]; supernatant, 10 hours P.I., 10^-3) was 0 PFU/ml. It also gave a virus yield (HSV-1 (McKrae strain) [1]; supernatant, 20 hours P.I., 10^-1) of 0 PFU/ml, a virus yield (HSV-1 (McKrae strain) [1]; supernatant, 20 hours P.I., 10^-2) of 0 PFU/ml and a virus yield (HSV-1 (McKrae strain) [1]; supernatant, 20 hours P.I., 10^-3) of 0 PFU/ml. The virus yield (HSV-1 (McKrae strain) [1]; supernatant, 24 hours P.I., 10^-1) was 0 PFU/ml, the virus yield (HSV-1 (McKrae strain) [1]; supernatant, 24 hours P.I., 10^-2) was 0 PFU/ml and the virus yield (HSV-1 (McKrae strain) [1]; supernatant, 24 hours P.I., 10^-3) was 0 PFU/ml. It also gave a virus yield (HSV-1 (McKrae strain) [1]; supernatant, 28 hours P.I., 10^-1) of 0 PFU/ml, a virus yield (HSV-1 (McKrae strain) [1]; supernatant, 28 hours P.I., 10^-2) of 0 PFU/ml and a virus yield (HSV-1 (McKrae strain) [1]; supernatant, 28 hours P.I., 10^-3) of 0 PFU/ml. For the same compound, the enhancement of plaque (HSV-1 (McKrae strain) [2]; 12.5 mg/ml) was “apparent enhancement of plaque”, the “No. of Plaques” value (HSV-1 (McKrae strain) [2]; 12.5 mg/ml) was 300 and the monolayer appearance (HSV-1 (McKrae strain) [2]; 25 mg/ml) was “thinned out appearance”. The “No. of Plaques” value (HSV-1 (McKrae strain) [2]; 25 mg/ml) was 0, the plaque inhibition (HSV-1 (McKrae strain) [2]; 12.5, 6.25, 3.125 mg/ml) was “not significantly effective in achieving plaque inhibition” and the toxicity (RK-13 cells) was “toxicity”. For the same compound, the “tiny areas under the skin” value (HSV type 2; Patient A, about two weeks after third infusion 3.4 cc) was “disappeared in about a day”, the duration of vesicles (HSV type 2; Patient A, after first infusion) was “disappeared in two to three days without pain” and the duration of spots (HSV type 2; Patient A, after third infusion) was 24 h. For the same compound, the “recurrence of lesions or pain” value (HSV type 2; Patient A, eighteen months after initial exam) was “no further lesions or pain”, the sciatic pain (HSV type 2; Patient A, first infusion 2.8 cc of 100 mg/cc) was “cessation of sciatic pain” and the sciatic nerve pain (HSV type 2; Patient A, second infusion 3.2 cc) was “the sciatic nerve pain disappeared during the infusion”. For the same compound, the itching and tingling (HSV type 2; Patient D) was “itching and tingling disappeared”, the lesions (HSV type 2; Patient D, two days later) was “all lesions were improving” and the lesions (HSV type 2; Patient E, 5 days after third infusion 5 cc) was “all lesions had cleared up”. The prodome and lesions (HSV type 2; Patient E, after first infusion) was “massive prodome with large weeping lesions”, the “pinpoint lesions breaking out” value (HSV type 2; Patient E, after third infusion) was 5-6 pinpoint lesions and the prodome and lesions (HSV type 2; Patient E, next day after second infusion) was “no prodome and no lesions”. For the same compound, the breakout (HSV type 2; Patient E, second day after second infusion) was “another breakout was occurring”, the lesions (HSV type 2; Patient E, two days after first infusion) was “the lesions had started to crust” and the general condition (HSV type 2; Patient F, about 3 weeks later) was “completely cleared up”. The lesion (HSV type 2; Patient F, next day, 3.8 cc) was “improved”, the new lesions (HSV type 2; Patient F, nine days after second infusion) was “on the other side lesions had developed” and the “duration of subsequent lesions” value (HSV type 2; Patient F, subsequent follow up) was 12 days and 7 days. For the same compound, the crusting of lesions (HSV type 2; Patient G, 4.3 cc) was “never crusted”, the psoriasis (HSV type 2; Patient G, 4.3 cc) was “psoriasis improved” and the “time to disappearance of lesions” value (HSV type 2; Patient G, 4.3 cc) was ≤ 48 h. For the same compound, the lesions (HSV type 2; Patient G, next day, 4.3 cc) was “the lesions improving”, the setback (HSV type 2; Patient H, 6 days later) was “setback 6 days later when the condition became a visual attack” and the improvement (HSV type 2; Patient H, following day, 4.6 cc (6.0 mg/kg)) was “striking improvement”. For the same compound, the further problems (HSV type 2; Patient H, six months after treatment, besides 2 minor incidents of red spots and some aura) was “no further problems”, the incidents since treatment (HSV type 2; Patient J, 12 months later, ointment applied) was “very few incidents since treatment” and the new vesicles (HSV type 2; [4]) was 2 vesicles. The tingling and redness (HSV type 2; [4]) was “the tingling and redness had gone”, the duration of lesion (HSV type 2; Patient J, later attack, 1% TEAC ointment topical) was 3 days and the lesions (HSV type 2; Patient J, three days later, 1% TEAC ointment topical) was “all the lesions had dried up”. For the same compound, the lesions (HSV type 2; [5]) was “the lesions were drying”, the pain (HSV type 2; [5]) was “the pain had disappeared” and the duration of attacks (HSV type 2; [6]) was 2 to 3 days. The severity of attacks (HSV type 2; [6]) was “milder severity”, the expected attack (HSV type 2; Patient K, six weeks after second infusion 3.4 cc) was “the attack had not occurred” and the “change in morphology of cells” value (WISH cells; 5, 2.5, 1.25 mg/culture overnight) was “No change in the morphology of the cells”. For the same compound, the “growth or general appearance vs untreated” value (WISH cells; 5, 2.5, 1.25 mg/culture, additional 24 hours in fresh medium) was “no apparent difference in the growth or general appearance”, the “reversibility of toxicity (thin) / morphology changes” value ([3]; drug removed, fresh media added) was “totally reversible” and the “change in morphology or cytopathic effect” value ([3]; one to seven hours exposure) was “No change in morphology or cytopathic effect”. The “rate of growth vs cultures without TEAC” value ([3]; one to seven hours exposure) was “no difference in the rate of growth” and the toxicity to cells ([3]; one to seven hours exposure) was “not toxic to cells”.
